Measured values: PMC6691788, “Design and synthesis of phthalazine-based compounds as potent anticancer agents with potential antiangiogenic activity via VEGFR-2 inhibition” (Journal of Enzyme Inhibition and Medicinal Chemistry, 2019)

Experiments:
Test in all cases: NCI 60 cell panel SRB screen
[1] = test system: RXF 393; type: cell-based; details: Homo sapiens; for GI50 / IC (TGI) / CC50: RXF 393, 5 log dose; for CC50: 48 h, read-out: LC50 (the source's name); for activity at 10 µM: RXF 393, single dose 10 μM, read-out: percent cell growth promotion
[2] = test system: SK-MEL-28; type: cell-based; details: Homo sapiens; for GI50: SK-MEL-28; for IC (TGI): SK-MEL-28, read-out: TGI; for activity at 10 µM: SK-MEL-28, read-out: percent cell growth promotion; for CC50: SK-MEL-28, 5 log dose, 48 h, read-out: LC50 (the source's name)
[3] = test system: COLO 205; type: cell-based; details: Homo sapiens; for GI50 / IC (TGI) / CC50: COLO 205, 5 log dose; for CC50: 48 h, read-out: LC50 (the source's name); for activity at 10 µM: COLO 205, single dose 10 μM, read-out: percent cell growth promotion
[4] = test system: OVCAR-8; type: cell-based; details: Homo sapiens; for GI50 / IC (TGI) / CC50: OVCAR-8, 5 log dose; for CC50: 48 h, read-out: LC50 (the source's name); for activity at 10 µM: OVCAR-8, single dose 10 μM, read-out: percent cell growth promotion
[5] = test system: 786-0; type: cell-based; details: Homo sapiens; for GI50 / IC (TGI) / CC50: 786-0, 5 log dose; for CC50: 48 h, read-out: LC50 (the source's name); for activity at 10 µM: 786-0, single dose 10 μM, read-out: percent cell growth promotion
[6] = test system: BT-549; type: cell-based; details: Homo sapiens; for GI50: BT-549; for IC (TGI): BT-549, read-out: TGI; for activity at 10 µM: BT-549, read-out: percent cell growth promotion; for CC50: BT-549, 5 log dose, 48 h, read-out: LC50 (the source's name)
[7] = test system: HOP-62; type: cell-based; details: Homo sapiens; for GI50 / IC (TGI) / CC50: HOP-62, 5 log dose; for CC50: 48 h, read-out: LC50 (the source's name); for activity at 10 µM: HOP-62, single dose 10 μM, read-out: percent cell growth promotion
[8] = test system: PC-3; type: cell-based; details: Homo sapiens; for GI50 / IC (TGI) / CC50: PC-3, 5 log dose; for CC50: 48 h, read-out: LC50 (the source's name); for activity at 10 µM: PC-3, single dose 10 μM, read-out: percent cell growth promotion
[9] = test system: SR; type: cell-based; details: Homo sapiens; for GI50 / IC (TGI) / CC50: 5 log dose; for CC50: 48 h, read-out: LC50 (the source's name); for activity at 10 µM: single dose 10 μM, read-out: percent cell growth promotion
[10] = test system: NCI-H226; type: cell-based; details: Homo sapiens; for GI50 / IC (TGI) / CC50: NCI-H226, 5 log dose; for CC50: 48 h, read-out: LC50 (the source's name); for activity at 10 µM: NCI-H226, single dose 10 μM, read-out: percent cell growth promotion
[11] = test system: MALME-3M; type: cell-based; details: Homo sapiens; for GI50 / IC (TGI) / activity at 10 µM: Malme-3M; for IC (TGI): read-out: TGI; for activity at 10 µM: read-out: percent cell growth promotion; for CC50: MALME-3M, 5 log dose, 48 h, read-out: LC50 (the source's name)
[12] = test system: CAKI-1; type: cell-based, human; details: for activity at 10 µM: CAKI-1, single dose 10 μM, read-out: percent cell growth promotion
[13] = test system: HCC-2998; type: cell-based; details: Homo sapiens; for GI50 / IC (TGI) / LC50 (50% lethal concentration): HCC-2998, 5 log dose; for LC50 (50% lethal concentration): 48 h; for activity at 10 µM: HCC-2998, single dose 10 μM, read-out: percent cell growth promotion
[14] = test system: M14; type: cell-based; details: Homo sapiens; for GI50: M14; for IC (TGI): M14, read-out: TGI; for activity at 10 µM: M14, read-out: percent cell growth promotion; for CC50: M14, 5 log dose, 48 h, read-out: LC50 (the source's name)
[15] = test system: HCT-15; type: cell-based; details: Homo sapiens; for GI50 / IC (TGI) / CC50: HCT-15, 5 log dose; for CC50: 48 h, read-out: LC50 (the source's name); for activity at 10 µM: HCT-15, single dose 10 μM, read-out: percent cell growth promotion
[16] = test system: DU-145; type: cell-based; details: Homo sapiens; for GI50 / IC (TGI) / CC50: DU-145, 5 log dose; for CC50: 48 h, read-out: LC50 (the source's name); for activity at 10 µM: DU-145, single dose 10 μM, read-out: percent cell growth promotion
[17] = test system: HL-60(TB); type: cell-based; details: Homo sapiens; for GI50 / IC (TGI) / CC50: 5 log dose; for CC50: 48 h, read-out: LC50 (the source's name); for activity at 10 µM: single dose 10 μM, read-out: percent cell growth promotion
[18] = test system: A498; type: cell-based; details: Homo sapiens; for GI50 / IC (TGI) / CC50: A498, 5 log dose; for CC50: 48 h, read-out: LC50 (the source's name); for activity at 10 µM: A498, single dose 10 μM, read-out: percent cell growth promotion
[19] = test system: SNB-19; type: cell-based; details: Homo sapiens; for GI50 / IC (TGI) / CC50: SNB-19, 5 log dose; for CC50: 48 h, read-out: LC50 (the source's name); for activity at 10 µM: SNB-19, single dose 10 μM, read-out: percent cell growth promotion

In the case of `O=C(Nc1ccc(Cl)cc1)Nc1ccc(Nc2nncc3ccccc23)cc1` [Compound 6b, 1–(4-Chlorophenyl)-3–(4-(phthalazin-1-ylamino)phenyl)urea], the GI50 [1] is reported as 4.28 µM, the IC (TGI) [1] is reported as 21.4 µM and the CC50 [1] is reported as > 100 µM. The activity at 10 µM [1] was 65.7%, the GI50 [2] was 3.04 µM and the IC (TGI) [2] was 12.8 µM. The activity at 10 µM [2] was 44.1%, the CC50 [2] was 51.5 µM and the GI50 [3] was 2.77 µM. For the same molecule, the IC (TGI) [3] was 9.58 µM, the CC50 [3] was 34.6 µM and the activity at 10 µM [3] was 18.6%. The GI50 [4] was 3.12 µM, the IC (TGI) [4] was 12.4 µM and the CC50 [4] was > 100 µM. For the same molecule, the activity at 10 µM [4] was 18.2%, the GI50 [5] was 3.09 µM and the IC (TGI) [5] was 25.2 µM. The CC50 [5] was > 100 µM, the activity at 10 µM [5] was 50.4% and the GI50 [6] was 2.15 µM. For the same molecule, the IC (TGI) [6] was 9.28 µM, the activity at 10 µM [6] was 15.7% and the CC50 [6] was > 100 µM. The GI50 [7] was 3 µM, the IC (TGI) [7] was 14.9 µM and the CC50 [7] was 74.9 µM. The activity at 10 µM [7] was 20.6%, the GI50 [8] was 2.32 µM and the IC (TGI) [8] was 11 µM. For the same molecule, the CC50 [8] was 55.4 µM, the activity at 10 µM [8] was 1.46% and the GI50 [9] was 3.89 µM. For the same molecule, the IC (TGI) [9] was 23.3 µM, the CC50 [9] was > 100 µM and the activity at 10 µM [9] was 17.5%. It also gave a GI50 [10] of 2.46 µM, an IC (TGI) [10] of 12.5 µM and a CC50 [10] of 43.2 µM. The activity at 10 µM [10] was 33.3%, the GI50 [11] was 3.94 µM and the IC (TGI) [11] was 16.5 µM. The activity at 10 µM [11] was 38.5%, the CC50 [11] was 50 µM and the TGI ([12]; CAKI-1, 5 log dose) was 12.5 µM. For the same molecule, the GI50 ([12]; Homo sapiens, CAKI-1, 5 log dose) was 1.97 µM, the CC50 ([12]; Homo sapiens, CAKI-1, 5 log dose, 48 h, read-out: LC50 (the source's name)) was 88 µM and the activity at 10 µM ([12]; Homo sapiens) was 20.6%. The GI50 [13] was 3.26 µM, the IC (TGI) [13] was 19.8 µM and the LC50 (50% lethal concentration) [13] was > 100 µM. The activity at 10 µM [13] was 30.7%, the GI50 [14] was 1.52 µM and the IC (TGI) [14] was 11.5 µM. For the same molecule, the activity at 10 µM [14] was 19.3%, the CC50 [14] was 40.7 µM and the GI50 [15] was 1.59 µM. For the same molecule, the IC (TGI) [15] was 11.8 µM, the CC50 [15] was 71.5 µM and the activity at 10 µM [15] was 18.3%. The GI50 [16] was 3.17 µM, the IC (TGI) [16] was 26.9 µM and the CC50 [16] was > 100 µM. It also gave an activity at 10 µM [16] of 33.7%, a GI50 [17] of 2.42 µM and an IC (TGI) [17] of 7 µM. For the same molecule, the CC50 [17] was > 100 µM, the activity at 10 µM [17] was 18.1% and the GI50 [18] was 3.79 µM. For the same molecule, the IC (TGI) [18] was 18.8 µM, the CC50 [18] was > 100 µM and the activity at 10 µM [18] was 24.5%. The GI50 [19] was 3.67 µM, the IC (TGI) [19] was 19 µM and the CC50 [19] was > 100 µM. The activity at 10 µM [19] was 33%.

`Clc1ccc(Nc2nnc(COc3ccccc3)c3ccccc23)cc1` [Compound 17a, N-(4-Chlorophenyl)-4-(phenoxymethyl)phthalazin-1-amine] gave a GI50 [1] of 1.01 µM, an IC (TGI) [1] of 4.97 µM and a CC50 [1] of 14.4 µM. The activity at 10 µM [1] was -5.93%, the GI50 [2] was 2.84 µM and the IC (TGI) [2] was 7.23 µM. The activity at 10 µM [2] was 4.73%, the CC50 [2] was 18.4 µM and the GI50 [3] was 0.45 µM. It also gave an IC (TGI) [3] of 4.38 µM, a CC50 [3] of 16.1 µM and an activity at 10 µM [3] of -5.75%. For the same molecule, the GI50 [4] was 3.49 µM, the IC (TGI) [4] was 15 µM and the CC50 [4] was > 25 µM. It also gave an activity at 10 µM [4] of 5.02%, a GI50 [5] of 2.6 µM and an IC (TGI) [5] of 8.11 µM. The CC50 [5] was > 25 µM, the activity at 10 µM [5] was 5.25% and the GI50 [6] was 2.05 µM. For the same molecule, the IC (TGI) [6] was 6.65 µM, the activity at 10 µM [6] was -9.97% and the CC50 [6] was 19 µM. It also gave a GI50 [7] of 2.51 µM, an IC (TGI) [7] of 7.74 µM and a CC50 [7] of 23.9 µM. The activity at 10 µM [7] was 13.1%, the GI50 [8] was 1.3 µM and the IC (TGI) [8] was 10.1 µM. For the same molecule, the CC50 [8] was > 25 µM, the activity at 10 µM [8] was -0.2% and the GI50 [9] was 1.23 µM. For the same molecule, the IC (TGI) [9] was 11.2 µM, the CC50 [9] was > 25 µM and the activity at 10 µM [9] was -20.6%. It also gave a GI50 [10] of 1.56 µM, an IC (TGI) [10] of 6.58 µM and a CC50 [10] of 21.7 µM. The activity at 10 µM [10] was 1.78%, the GI50 [11] was 1.38 µM and the IC (TGI) [11] was 7.3 µM. For the same molecule, the activity at 10 µM [11] was -13.5%, the CC50 [11] was 25 µM and the activity at 10 µM ([12]; Homo sapiens) was 15.4%. It also gave a GI50 [13] of 3.81 µM, an IC (TGI) [13] of 8.36 µM and an LC50 (50% lethal concentration) [13] of 18.3 µM. The activity at 10 µM [13] was 8.55%, the GI50 [14] was 0.91 µM and the IC (TGI) [14] was 5.03 µM. It also gave an activity at 10 µM [14] of -9.99%, a CC50 [14] of 15.2 µM and a GI50 [15] of 2.05 µM. It also gave an IC (TGI) [15] of 6.75 µM, a CC50 [15] of 19.7 µM and an activity at 10 µM [15] of 4.45%. For the same molecule, the GI50 [16] was 2.65 µM, the IC (TGI) [16] was 10.5 µM and the CC50 [16] was > 25 µM. It also gave an activity at 10 µM [16] of 10.4%, a GI50 [17] of 3.56 µM and an IC (TGI) [17] of 11.9 µM. The CC50 [17] was > 25 µM, the activity at 10 µM [17] was -15.7% and the GI50 [18] was 0.68 µM. The IC (TGI) [18] was 3.64 µM, the CC50 [18] was 10.6 µM and the activity at 10 µM [18] was -17.3%. The GI50 [19] was 3.2 µM, the IC (TGI) [19] was 12 µM and the CC50 [19] was > 25 µM. The activity at 10 µM [19] was 21.9%.
